Experimental data published in ChEMBL document CHEMBL4011597, “Synthesis, screening and docking of fused pyrano[3,2-d]pyrimidine derivatives as xanthine oxidase inhibitor” (Eur J Med Chem, 2017).

molecular target: T1, Xanthine dehydrogenase/oxidase (Bos taurus, UniProt P80457); test: Inhibition of bovine xanthine oxidase assessed as reduction in uric acid formation at 100 uM using xanthine as substrate pretreated for 5 mins followed by substrate addition measured by UV-vis spectrophotometric method relative to control; details: cattle
T1 sequence (P80457 whole entry): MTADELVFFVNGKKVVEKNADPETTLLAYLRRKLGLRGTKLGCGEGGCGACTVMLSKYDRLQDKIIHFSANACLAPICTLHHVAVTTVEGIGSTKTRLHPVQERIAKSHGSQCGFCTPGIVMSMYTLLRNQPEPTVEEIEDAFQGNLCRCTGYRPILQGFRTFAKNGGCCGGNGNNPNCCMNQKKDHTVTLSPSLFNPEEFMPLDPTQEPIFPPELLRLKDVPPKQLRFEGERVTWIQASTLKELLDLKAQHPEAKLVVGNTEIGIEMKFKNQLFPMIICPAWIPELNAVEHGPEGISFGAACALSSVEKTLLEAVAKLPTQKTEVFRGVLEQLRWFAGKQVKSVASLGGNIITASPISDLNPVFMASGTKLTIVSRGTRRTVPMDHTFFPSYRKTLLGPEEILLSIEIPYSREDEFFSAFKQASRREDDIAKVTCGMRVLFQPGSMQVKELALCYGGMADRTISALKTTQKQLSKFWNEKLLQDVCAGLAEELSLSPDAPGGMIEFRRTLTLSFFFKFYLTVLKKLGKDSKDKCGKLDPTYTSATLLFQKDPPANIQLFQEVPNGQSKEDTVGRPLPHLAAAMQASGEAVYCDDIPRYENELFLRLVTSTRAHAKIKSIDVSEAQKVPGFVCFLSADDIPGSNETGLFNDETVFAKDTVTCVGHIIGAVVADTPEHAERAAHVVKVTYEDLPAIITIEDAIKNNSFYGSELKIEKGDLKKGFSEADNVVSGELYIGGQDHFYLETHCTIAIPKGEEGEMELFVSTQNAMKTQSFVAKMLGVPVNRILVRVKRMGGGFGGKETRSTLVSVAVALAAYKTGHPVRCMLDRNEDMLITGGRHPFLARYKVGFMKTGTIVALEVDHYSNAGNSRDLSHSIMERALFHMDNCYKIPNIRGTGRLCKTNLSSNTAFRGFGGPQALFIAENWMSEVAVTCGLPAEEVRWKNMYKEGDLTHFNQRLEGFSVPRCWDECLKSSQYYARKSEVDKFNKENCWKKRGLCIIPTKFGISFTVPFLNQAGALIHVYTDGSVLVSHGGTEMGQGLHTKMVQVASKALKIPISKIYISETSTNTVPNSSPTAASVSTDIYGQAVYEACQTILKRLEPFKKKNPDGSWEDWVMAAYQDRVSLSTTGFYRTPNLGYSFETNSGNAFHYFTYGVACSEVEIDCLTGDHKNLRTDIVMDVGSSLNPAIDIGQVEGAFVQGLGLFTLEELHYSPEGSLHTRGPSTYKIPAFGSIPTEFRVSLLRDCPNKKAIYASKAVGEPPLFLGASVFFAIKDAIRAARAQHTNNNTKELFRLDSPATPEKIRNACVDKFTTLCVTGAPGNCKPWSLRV

SMILES	inhibition at 100 µM
COc1ccc(Nc2ncnc3c2C(c2ccc(Br)cc2)c2c(c(=O)oc4ccccc24)O3)cc1 (stereo not given)	65.8%
COc1ccc(Nc2ncnc3c2C(c2ccc(OC)cc2)C2=C(CCCC2=O)O3)cc1 (stereo not given)	87.4%
COc1ccc(Nc2ncnc3c2C(c2cccc(O)c2)C2=C(CCCC2=O)O3)cc1 (stereo not given)	82.3%
COc1ccc(Nc2ncnc3c2C(c2cccc(Cl)c2)C2=C(CCCC2=O)O3)cc1 (stereo not given)	70.2%
COc1ccc(Nc2ncnc3c2C(c2cccc(C)c2)C2=C(CCCC2=O)O3)cc1 (stereo not given)	80.5%
COc1ccc(Nc2ncnc3c2C(c2ccccc2OC)C2=C(CCCC2=O)O3)cc1 (stereo not given)	86.5%
COc1ccc(Nc2ncnc3c2C(c2ccc(O)c(O)c2)c2c(c(=O)oc4ccccc24)O3)cc1 (stereo not given)	90.4%
COc1ccc(Nc2ncnc3c2C(c2cccc(O)c2)c2c(c(=O)oc4ccccc24)O3)cc1 (stereo not given)	81.3%
COc1ccc(Nc2ncnc3c2C(c2ccc(OC)c(OC)c2)c2c(c(=O)oc4ccccc24)O3)cc1 (stereo not given)	94%
COc1ccc(Nc2ncnc3c2C(c2ccc(F)cc2)c2c(c(=O)oc4ccccc24)O3)cc1 (stereo not given)	70.2%
COc1ccc(Nc2ncnc3c2C(c2cccc(Cl)c2)c2c(c(=O)oc4ccccc24)O3)cc1 (stereo not given)	69.6%
COc1ccc(Nc2ncnc3c2C(c2ccccc2)c2c(c(=O)oc4ccccc24)O3)cc1 (stereo not given)	72.8%
COc1ccc(Nc2ncnc3c2C(c2ccc(O)cc2)c2c(c(=O)oc4ccccc24)O3)cc1 (stereo not given)	82.4%
COc1ccc(Nc2ncnc3c2C(c2ccc(OC)c(OC)c2)C2=C(CCCC2=O)O3)cc1 (stereo not given)	94.2%
COc1ccc(Nc2ncnc3c2C(c2ccc(Cl)cc2)c2c(c(=O)oc4ccccc24)O3)cc1 (stereo not given)	67.2%
COc1ccc(Nc2ncnc3c2C(c2ccc(O)c(O)c2)c2c(n[nH]c2C)O3)cc1 (stereo not given)	60.6%
COc1ccc(Nc2ncnc3c2C(c2ccccc2OC)c2c(c(=O)oc4ccccc24)O3)cc1 (stereo not given)	83.6%
COc1ccc(Nc2ncnc3c2C(c2ccc([N+](=O)[O-])cc2)C2=C(CCCC2=O)O3)cc1 (stereo not given)	63.5%
COc1ccc(Nc2ncnc3c2C(c2ccc(F)cc2)C2=C(CCCC2=O)O3)cc1 (stereo not given)	71.1%
COc1ccc(Nc2ncnc3c2C(c2ccc(Br)cc2)C2=C(CCCC2=O)O3)cc1 (stereo not given)	67%

molecular target: T1, Xanthine dehydrogenase/oxidase; test: Inhibition of bovine xanthine oxidase assessed as reduction in uric acid formation using xanthine as substrate pretreated for 5 mins followed by substrate addition measured by UV-vis spectrophotometric method; details: not given

SMILES	IC50
COc1ccc(Nc2ncnc3c2C(c2ccc(Br)cc2)c2c(c(=O)oc4ccccc24)O3)cc1 (stereo not given)	60 µM
COc1ccc(Nc2ncnc3c2C(c2ccc(OC)cc2)C2=C(CCCC2=O)O3)cc1 (stereo not given)	25 µM
COc1ccc(Nc2ncnc3c2C(c2cccc(O)c2)C2=C(CCCC2=O)O3)cc1 (stereo not given)	30 µM
COc1ccc(Nc2ncnc3c2C(c2cccc(Cl)c2)C2=C(CCCC2=O)O3)cc1 (stereo not given)	52 µM
COc1ccc(Nc2ncnc3c2C(c2cccc(C)c2)C2=C(CCCC2=O)O3)cc1 (stereo not given)	35 µM
COc1ccc(Nc2ncnc3c2C(c2ccccc2OC)C2=C(CCCC2=O)O3)cc1 (stereo not given)	24 µM
COc1ccc(Nc2ncnc3c2C(c2ccc(O)c(O)c2)c2c(c(=O)oc4ccccc24)O3)cc1 (stereo not given)	18 µM
COc1ccc(Nc2ncnc3c2C(c2cccc(O)c2)c2c(c(=O)oc4ccccc24)O3)cc1 (stereo not given)	35 µM
COc1ccc(Nc2ncnc3c2C(c2ccc(OC)c(OC)c2)c2c(c(=O)oc4ccccc24)O3)cc1 (stereo not given)	17 µM
COc1ccc(Nc2ncnc3c2C(c2ccc(F)cc2)c2c(c(=O)oc4ccccc24)O3)cc1 (stereo not given)	50 µM
COc1ccc(Nc2ncnc3c2C(c2cccc(Cl)c2)c2c(c(=O)oc4ccccc24)O3)cc1 (stereo not given)	54 µM
COc1ccc(Nc2ncnc3c2C(c2ccccc2)c2c(c(=O)oc4ccccc24)O3)cc1 (stereo not given)	40 µM
COc1ccc(Nc2ncnc3c2C(c2ccc(O)cc2)c2c(c(=O)oc4ccccc24)O3)cc1 (stereo not given)	30 µM
COc1ccc(Nc2ncnc3c2C(c2ccc(OC)c(OC)c2)C2=C(CCCC2=O)O3)cc1 (stereo not given)	8 µM
COc1ccc(Nc2ncnc3c2C(c2ccc(Cl)cc2)c2c(c(=O)oc4ccccc24)O3)cc1 (stereo not given)	56 µM
COc1ccc(Nc2ncnc3c2C(c2ccc(O)c(O)c2)c2c(n[nH]c2C)O3)cc1 (stereo not given)	68 µM
COc1ccc(Nc2ncnc3c2C(c2ccccc2OC)c2c(c(=O)oc4ccccc24)O3)cc1 (stereo not given)	29 µM
COc1ccc(Nc2ncnc3c2C(c2ccc([N+](=O)[O-])cc2)C2=C(CCCC2=O)O3)cc1 (stereo not given)	67 µM
COc1ccc(Nc2ncnc3c2C(c2ccc(F)cc2)C2=C(CCCC2=O)O3)cc1 (stereo not given)	50 µM
COc1ccc(Nc2ncnc3c2C(c2ccc(Br)cc2)C2=C(CCCC2=O)O3)cc1 (stereo not given)	58 µM

molecular target: T1, Xanthine dehydrogenase/oxidase; test: Inhibition of bovine xanthine oxidase assessed as reduction in uric acid formation at 10 uM using xanthine as substrate pretreated for 5 mins followed by substrate addition measured by UV-vis spectrophotometric method relative to control; details: cattle

SMILES	inhibition at 10 µM
COc1ccc(Nc2ncnc3c2C(c2ccc(Br)cc2)c2c(c(=O)oc4ccccc24)O3)cc1 (stereo not given)	32.4%
COc1ccc(Nc2ncnc3c2C(c2ccc(OC)cc2)C2=C(CCCC2=O)O3)cc1 (stereo not given)	43.5%
COc1ccc(Nc2ncnc3c2C(c2cccc(O)c2)C2=C(CCCC2=O)O3)cc1 (stereo not given)	41.2%
COc1ccc(Nc2ncnc3c2C(c2cccc(Cl)c2)C2=C(CCCC2=O)O3)cc1 (stereo not given)	34.6%
COc1ccc(Nc2ncnc3c2C(c2cccc(C)c2)C2=C(CCCC2=O)O3)cc1 (stereo not given)	40.2%
COc1ccc(Nc2ncnc3c2C(c2ccccc2OC)C2=C(CCCC2=O)O3)cc1 (stereo not given)	43.2%
COc1ccc(Nc2ncnc3c2C(c2ccc(O)c(O)c2)c2c(c(=O)oc4ccccc24)O3)cc1 (stereo not given)	45.9%
COc1ccc(Nc2ncnc3c2C(c2cccc(O)c2)c2c(c(=O)oc4ccccc24)O3)cc1 (stereo not given)	39.5%
COc1ccc(Nc2ncnc3c2C(c2ccc(OC)c(OC)c2)c2c(c(=O)oc4ccccc24)O3)cc1 (stereo not given)	48%
COc1ccc(Nc2ncnc3c2C(c2ccc(F)cc2)c2c(c(=O)oc4ccccc24)O3)cc1 (stereo not given)	35.1%
COc1ccc(Nc2ncnc3c2C(c2cccc(Cl)c2)c2c(c(=O)oc4ccccc24)O3)cc1 (stereo not given)	34.5%
COc1ccc(Nc2ncnc3c2C(c2ccccc2)c2c(c(=O)oc4ccccc24)O3)cc1 (stereo not given)	36.4%
COc1ccc(Nc2ncnc3c2C(c2ccc(O)cc2)c2c(c(=O)oc4ccccc24)O3)cc1 (stereo not given)	41.2%
COc1ccc(Nc2ncnc3c2C(c2ccc(OC)c(OC)c2)C2=C(CCCC2=O)O3)cc1 (stereo not given)	57.5%
COc1ccc(Nc2ncnc3c2C(c2ccc(Cl)cc2)c2c(c(=O)oc4ccccc24)O3)cc1 (stereo not given)	33.5%
COc1ccc(Nc2ncnc3c2C(c2ccc(O)c(O)c2)c2c(n[nH]c2C)O3)cc1 (stereo not given)	31.6%
COc1ccc(Nc2ncnc3c2C(c2ccccc2OC)c2c(c(=O)oc4ccccc24)O3)cc1 (stereo not given)	41.1%
COc1ccc(Nc2ncnc3c2C(c2ccc([N+](=O)[O-])cc2)C2=C(CCCC2=O)O3)cc1 (stereo not given)	31.5%
COc1ccc(Nc2ncnc3c2C(c2ccc(F)cc2)C2=C(CCCC2=O)O3)cc1 (stereo not given)	35.5%
COc1ccc(Nc2ncnc3c2C(c2ccc(Br)cc2)C2=C(CCCC2=O)O3)cc1 (stereo not given)	33.5%

molecular target: T1, Xanthine dehydrogenase/oxidase; test: Inhibition of bovine xanthine oxidase assessed as reduction in uric acid formation at 1 uM using xanthine as substrate pretreated for 5 mins followed by substrate addition measured by UV-vis spectrophotometric method relative to control; details: cattle

SMILES	inhibition at 1 µM
COc1ccc(Nc2ncnc3c2C(c2ccc(Br)cc2)c2c(c(=O)oc4ccccc24)O3)cc1 (stereo not given)	22.2%
COc1ccc(Nc2ncnc3c2C(c2ccc(OC)cc2)C2=C(CCCC2=O)O3)cc1 (stereo not given)	32.3%
COc1ccc(Nc2ncnc3c2C(c2cccc(O)c2)C2=C(CCCC2=O)O3)cc1 (stereo not given)	29.4%
COc1ccc(Nc2ncnc3c2C(c2cccc(Cl)c2)C2=C(CCCC2=O)O3)cc1 (stereo not given)	29.2%
COc1ccc(Nc2ncnc3c2C(c2cccc(C)c2)C2=C(CCCC2=O)O3)cc1 (stereo not given)	31%
COc1ccc(Nc2ncnc3c2C(c2ccccc2OC)C2=C(CCCC2=O)O3)cc1 (stereo not given)	34.8%
COc1ccc(Nc2ncnc3c2C(c2ccc(O)c(O)c2)c2c(c(=O)oc4ccccc24)O3)cc1 (stereo not given)	35%
COc1ccc(Nc2ncnc3c2C(c2cccc(O)c2)c2c(c(=O)oc4ccccc24)O3)cc1 (stereo not given)	28.5%
COc1ccc(Nc2ncnc3c2C(c2ccc(OC)c(OC)c2)c2c(c(=O)oc4ccccc24)O3)cc1 (stereo not given)	36.7%
COc1ccc(Nc2ncnc3c2C(c2ccc(F)cc2)c2c(c(=O)oc4ccccc24)O3)cc1 (stereo not given)	24.5%
COc1ccc(Nc2ncnc3c2C(c2cccc(Cl)c2)c2c(c(=O)oc4ccccc24)O3)cc1 (stereo not given)	23.2%
COc1ccc(Nc2ncnc3c2C(c2ccccc2)c2c(c(=O)oc4ccccc24)O3)cc1 (stereo not given)	25.1%
COc1ccc(Nc2ncnc3c2C(c2ccc(O)cc2)c2c(c(=O)oc4ccccc24)O3)cc1 (stereo not given)	30.9%
COc1ccc(Nc2ncnc3c2C(c2ccc(OC)c(OC)c2)C2=C(CCCC2=O)O3)cc1 (stereo not given)	29.3%
COc1ccc(Nc2ncnc3c2C(c2ccc(Cl)cc2)c2c(c(=O)oc4ccccc24)O3)cc1 (stereo not given)	21.3%
COc1ccc(Nc2ncnc3c2C(c2ccc(O)c(O)c2)c2c(n[nH]c2C)O3)cc1 (stereo not given)	23.5%
COc1ccc(Nc2ncnc3c2C(c2ccccc2OC)c2c(c(=O)oc4ccccc24)O3)cc1 (stereo not given)	30.2%
COc1ccc(Nc2ncnc3c2C(c2ccc([N+](=O)[O-])cc2)C2=C(CCCC2=O)O3)cc1 (stereo not given)	20%
COc1ccc(Nc2ncnc3c2C(c2ccc(F)cc2)C2=C(CCCC2=O)O3)cc1 (stereo not given)	27.1%
COc1ccc(Nc2ncnc3c2C(c2ccc(Br)cc2)C2=C(CCCC2=O)O3)cc1 (stereo not given)	23.1%
